# Measurements as given in patent US7598234B2, “Steroid derived antibiotics” (Brigham Young University, priority 1998, dated 2009).
# What was measured:
# [1] = system: Pseudomonas aeruginosa (ATCC 27853); test: MIC and MBC measurement with Pseudomonas aeruginosa (ATCC 27853); type: cell-based
# Excerpt: (§1) General: Microorganisms. Reference strains were purchased from the American Type Culture Collection (Rockville, Md.) or Bactrol disks from Difeo Laboratories (Detroit, Mich.). The following specific ATCC strains were used: 10798 Escherichia coli, 25922 Escherichia coli, 13883 Klebsiella pneumoniae, 27853 Pseudomonas aeruginosa, 14028 Salmonella typhimurium, 29212 Enterococcus faecalis, 25923 Staphylococcus aureus, 19615 Streptococcus pyogenes, and 90028 Candida albicans. Bacterial strains were maintained on Mueller-Hinton agar plates, and Candida albicans was maintained on Sabouraud Dextrose agar plates.
# (§2) Tryptic soy broth (TSB) was made by dissolving 27.5 grams of tryptic soy broth without dextrose (DIFCO Laboratories) in 1 liter of deionized water and sterilizing at 121° C. for 15 minutes. Solid agar (TSA) plates were made by dissolving 6.4 grams of tryptic soy broth and 12 grams of agar (purified grade, Fischer Scientific) in 800 mL of deionized water and sterilizing at 121° C. for 20 minutes. Aliquots (20 mL) of the homogeneous solution were then poured in sterile plastic petri dishes (100×15 mm, Fisher Scientific). Solutions of compounds were made by dissolving the HCl salt of the respective compound into an appropriate amount of deionized and sterilized water followed by microfiltration.
# (§3) Aliquots of 1 mL of the suspension were added to test tubes containing 1 mL TSB and incrementally varied concentrations of cholic acid derivatives and/or erythromycin or novobiocin. In the sensitization experiments, erythromycin or novobiocin were added 15 minutes later than the cholic acid derivatives. The samples were subjected to stationary incubation at 37° C. for 24 hours. Sample turbidity was determined by measuring absorption at 760 nm (HP 8453 UV-Visible Chemstation, Hewlett Packard). Additionally, an alliquot from each of the samples showing no measurable turbidity was subcultured on TSA plates (alliquots were diluted to provide fewer than 300 CFU). Colonies that grew on the subculture after overnight incubation were counted and the number of CFU/mL in the samples were calculated. The calculated values were compared to the number of CFU/mL in the original inoculum.
# E. coli (ATCC 10798) [2] = test: Sensitization to novobiocin (concentration lowering the MIC of novobiocin), E. coli (ATCC 10798); type: cell-based, Escherichia coli; settings: Table 3, E. coli (ATCC 10798)
# Protocol: (§4) Alternatively, “fractional inhibitory concentration (FIC)” is also useful for determination of synergy between the compounds of the invention, or the compounds in combination with known antibiotics. FICs can be performed by checkerboard titrations of compounds in one dimension of a microtiter plate, and of antibiotics in the other dimension, for example. The FIC is calculated by looking at the impact of one antibiotic on the MIC of the other and vice versa. […] Preferably, an FIC of less than 0.5 is obtained for synergism. As used herein, FIC can be determined as follows:
# as §3
# (§5) Ability to permeabilize outer membrane: Compounds 11, 106, and 108-114 (FIG. 1) were tested for antibiotic activity. They were also tested for the ability to permeabilize the outer membrane of Gram-negative bacteria, causing sensitization to hydrophobic antibiotics that cannot cross the outer membrane. The permeabilization of the outer membrane was measured using erythromycin and novobiocin.
# (§6) The MICs of erythromycin and novobiocin against E. coli (ATCC 10798) at 70 and >500 μg/mL were measured.
# [3] = system: Pseudomonas aeruginosa (ATCC 27853); test: Sensitization to novobiocin, Pseudomonas aeruginosa (ATCC 27853); type: cell-based; settings: Table 8; P. aureginosa (ATCC 27853)
# Protocol: as §4
# as §3, with “inoculum. […]” for “inoculum.”
# (§7) To measure permeabilization, the FIC values for compounds 1, 2, 5, 106, 10, 112, 133, and 134 with erythromycin, novobiocin, and rifampicin were determined. Concentrations of 0.5, 1.0 or 3.0 μg/mL of these antibiotics were used, and the concentrations of the cholic acid derivatives required to inhibit bacterial growth of Gram-negative strains were determined.
# E. coli (ATCC 10798) [4] = test: Sensitization to erythromycin (concentration lowering the MIC of erythromycin), E. coli (ATCC 10798); type: cell-based, Escherichia coli; settings: Table 2, E. coli (ATCC 10798)
# Protocol: as §4, §3, §5, §6
# E. coli (ATCC 25922) [5] = test: MIC and MBC measurement with E. coli (ATCC 25922); type: cell-based, Escherichia coli
# Excerpt: as §1, §2
# as §3, with “inoculum. […]” for “inoculum.”
# [6] = system: Pseudomonas aeruginosa (ATCC 27853); test: Sensitization to erythromycin, Pseudomonas aeruginosa (ATCC 27853); type: cell-based; settings: for FIC / concentration required to inhibit bacterial growth with antibiotic: Table 11, Pseudomonas aeruginosa ATCC 27853; for FIC: erythromycin (by order); for concentration required to inhibit bacterial growth with antibiotic: erythromycin (by order) at 0.5, 1.0 or 3.0 μg/mL
# Protocol: as §4
# as §3, with “inoculum. […]” for “inoculum.”
# as §7
# E. coli (ATCC 10798) [7] = test: MIC and MBC measurement with E. coli (ATCC 10798); type: cell-based, Escherichia coli; settings: for MIC (in words): FIG. 5, strain not named
# Excerpt: as §1, §2, §3
# E. coli (ATCC 25922) [8] = test: Sensitization to erythromycin, E. coli (ATCC 25922); type: cell-based, Escherichia coli; settings: for FIC / concentration required to inhibit bacterial growth with antibiotic: Table 11, Escherichia coli ATCC 25922; for FIC: erythromycin (by order); for concentration required to inhibit bacterial growth with antibiotic: erythromycin (by order) at 0.5, 1.0 or 3.0 μg/mL
# Protocol: FICs can be performed by checkerboard titrations of compounds in one dimension of a microtiter plate, and of antibiotics in the other dimension, for example. The FIC is calculated by looking at the impact of one antibiotic on the MIC of the other and vice versa. […] Preferably, an FIC of less than 0.5 is obtained for synergism. As used herein, FIC can be determined as follows:
# as §3
# Concentrations of 0.5, 1.0 or 3.0 μg/mL of these antibiotics were used, and the concentrations of the cholic acid derivatives required to inhibit bacterial growth of Gram-negative strains were determined.
# (§8) Minimum inhibition concentrations (MIC) and minimum hemolytic concentrations (MHC) were measured as described in Li et al., Antimicrob. Agents. Chemother., 1999, 43, 1347.
# [9] = system: Staphylococcus aureus ATCC 25923; test: MIC and MBC measurement with Staphylococcus aureus ATCC 25923; type: cell-based; settings: Table 10; Staphylococcus aureus ATCC 25923
# Excerpt: as §1, §2
# as §3, with “inoculum. […]” for “inoculum.”
# [10] = system: Candida albicans ATCC 90028; test: MIC and MBC measurement with Candida albicans ATCC 90028; type: cell-based; settings: Table 10
# Excerpt: as §1, §2, §3
# [11] = system: Klebsiella pneumonia ATCC 13883; test: MIC and MBC measurement with Klebsiella pneumoniae ATCC 13883; type: cell-based; settings: Table 10
# Excerpt: as §1, §2, §3
# [12] = Protocol: as §8
# [13] = system: Salmonella typhimurium ATCC 14028; test: MIC and MBC measurement with Salmonella typhimurium ATCC 14028; type: cell-based; settings: Table 10
# Excerpt: as §1, §2, §3
# [14] = system: Streptococcus pyrogenes ATCC 19615; test: MIC and MBC measurement with Streptococcus pyogenes ATCC 19615; type: cell-based; settings: Table 10
# Excerpt: as §1, §2, §3
# [15] = system: Enterococcus faecalis ATCC 29212; test: MIC and MBC measurement with Enterococcus faecalis ATCC 29212; type: cell-based; settings: Table 10
# Excerpt: as §1, §2, §3
# [16] = Table 6, P. aureginosa (ATCC 27853)
# [17] = Table 10, Pseudomonas aeruginosa ATCC 27853
# [18] = Table 10, Escherichia coli ATCC 25922
Structure (SMILES),MBC [9],MIC [9],"MBC [1, 17]","MIC [1, 17]",MBC [10],MIC [10],MBC [11],MIC [11],MHC [12],MBC [13],MIC [13],MBC [14],MIC [14],MBC (E. coli (ATCC 25922) [5]; [18]),MIC (E. coli (ATCC 25922) [5]; [18]),FIC [6],concentration required to inhibit bacterial growth with antibiotic [6],MBC [15],MIC [15],MIC (in words) (E. coli (ATCC 10798) [7]),further results
C[C@H](CCCN(C)Cc1ccccc1)[C@H]1CC[C@H]2[C@@H]3[C@H](OCCNC(=N)N)C[C@@H]4C[C@H](OCCNC(=N)N)CC[C@]4(C)[C@H]3C[C@H](OCCNC(=N)N)[C@]12C [Compound 4],,,,,,,,,,,,,,,,,,,,,"MBC [1, 16]: 40 µg/mL; MIC [1, 16]: 15 µg/mL; MIC: concentration required to lower the MIC of novobiocin from >500 μg/mL to 1 μg/mL (E. coli (ATCC 10798) [2]): 5 µg/mL; MBC (with novobiocin) (E. coli (ATCC 10798) [2]; novobiocin sensitization): 10 µg/mL; MIC: concentration required to lower the MIC of novobiocin from >500 μg/mL to 1 μg/mL [3]: 6 µg/mL; MIC: concentration required to lower the MIC of erythromycin from 70 μg/mL to 1 μg/mL (E. coli (ATCC 10798) [4]): 1.5 µg/mL; MBC (with erythromycin) (E. coli (ATCC 10798) [4]; erythromycin sensitization): 10 µg/mL; MBC (E. coli (ATCC 25922) [5]; Table 4, E. coli (ATCC 25922)): 9 µg/mL; MIC (E. coli (ATCC 25922) [5]; Table 4, E. coli (ATCC 25922)): 6 µg/mL; MIC: concentration required to lower the MIC of erythromycin from 240 μg/mL to 5 μg/mL ([6]; Table 7, P. aureginosa (ATCC 27853)): 5 µg/mL; MBC (with erythromycin) ([6]; Table 7, P. aureginosa (ATCC 27853), erythromycin sensitization): 40 µg/mL; MBC (E. coli (ATCC 10798) [7]; Table 1, E. coli (ATCC 10798)): 10 µg/mL; MIC (E. coli (ATCC 10798) [7]; Table 1, E. coli (ATCC 10798)): 5 µg/mL; MIC: concentration required to lower the MIC of erythromycin from 60 μg/mL to 1 μg/mL (E. coli (ATCC 25922) [8]; Table 5, E. coli (ATCC 25922)): 1 µg/mL; MBC (with erythromycin) (E. coli (ATCC 25922) [8]; Table 5, E. coli (ATCC 25922), erythromycin sensitization): 5 µg/mL"
CCCCCCCCNCCC[C@@H](C)[C@H]1CC[C@H]2[C@@H]3[C@H](OCCCN)C[C@@H]4C[C@H](OCCCN)CC[C@]4(C)[C@H]3C[C@H](OCCCN)[C@]12C [Compound 133],2.0 µg/mL,0.4 µg/mL,3.2 µg/mL,2.0 µg/mL,45 µg/mL,31 µg/mL,5.8 µg/mL,2.6 µg/mL,29 µg/mL,6.7 µg/mL,2.6 µg/mL,2.9 µg/mL,2.3 µg/mL,3.0 µg/mL,3.0 µg/mL,0.21,0.35 µg/mL,5.5 µg/mL,3.1 µg/mL,very low,FIC (E. coli (ATCC 25922) [8]): 0.42; concentration required to inhibit bacterial growth with antibiotic (E. coli (ATCC 25922) [8]): 1.2 µg/mL
CCCCCCCCNCCC[C@@H](C)[C@H]1CC[C@H]2[C@@H]3[C@H](OCCCNC(=N)N)C[C@@H]4C[C@H](OCCCNC(=N)N)CC[C@]4(C)[C@H]3C[C@H](OCCCNC(=N)N)[C@]12C [Compound 134],1.4 µg/mL,0.59 µg/mL,2.9 µg/mL,2.0 µg/mL,76 µg/mL,53 µg/mL,3.0 µg/mL,0.84 µg/mL,9.0 µg/mL,1.8 µg/mL,0.81 µg/mL,3.5 µg/mL,3.5 µg/mL,0.37 µg/mL,0.31 µg/mL,0.42,0.70 µg/mL,5.8 µg/mL,3.0 µg/mL,very low,FIC (E. coli (ATCC 25922) [8]): 0.36; concentration required to inhibit bacterial growth with antibiotic (E. coli (ATCC 25922) [8]): 0.37 µg/mL
